# Entries after “also recorded” stand apart in the source; their conditions may differ.
# System: WT mice with CS-LI
# Experiment: Chronic CS/TSE lung injury in WT mice treated by nebulization or IP injection
# Assay type: in vivo, mouse
# Details: for lung volume (μCT): 20 weeks CS
# Method: Pulmonary function tests were performed immediately before CT imaging and before mice were killed, as previously described (DeCologne N et al., Eur Respir J. 35:176-85, 2010). Briefly, mice were anesthetized with a ketamine/xylazine mixture. Anesthetized mice were intubated by inserting a sterile, 20-gauge intravenous cannula through the vocal cords into the trachea. Elastance, compliance, and total lung resistance were then measured (SCIREQ, Tempe, AZ). The “snapshot perturbation method” was used to study lung function in the CBB injury model. This method measures total lung resistance, compliance, and elastance of the entire respiratory system. Increased total lung resistance in the CBB model may reflect lung contraction associated with pleural rind formation with concurrent distortion of the airways. The flexiVent was set to a tidal volume of […] at a frequency of 150 breaths/min against 2-3 cm H2O positive end-expiratory pressure, according to manufacturer's specifications. The mice were maintained under anesthesia using isofluorane throughout the pulmonary function testing.
# After ketamine/xylazine injection, mice were anesthetized further using an isoflurane/02 mixture to ensure that mice remained deeply anesthetized and to minimize spontaneous breaths. The Explore Locus Micro-CT Scanner (General Electric, GE Healthcare, Wauwatosa, WI) was used for CT imaging. CT scans were performed during full inspiration and at a resolution of […]. Lung volumes were calculated from lung renditions collected at full inspiration. Microview software was used to analyze lung volumes and render three-dimensional images (Tucker T A et al., Am J Respir Cell Mol Biol. 50:316-27, 2014).
# Wild type (WT) mice of the C57BL/6J strain (n=10/group) were kept in ambient air or were TSE for 4 hour/day, 5 days a week as described. […]
# Micro-computed Tomography (pCT) scanning and measurements of lung volume and pulmonary function. […] Lung volumes were calculated from lung renditions collected at full inspiration using Microview software. […]
Substance,lung volume (μCT),"lung volume, compliance, elastance and resistance (IP or Neb, 20 weeks TSE/CS)"
"FTTFTVT (listed as Homo sapiens) [CSP7, heptapeptide fragment of the caveolin-1 scaffolding domain peptide CSP]",significantly improved,"reduced lung volume, compliance, elastance and resistance; also recorded: trend of reversal; also recorded: significantly improved"
"WGIDKAFFTTSTVTYKWFRY [CP, scrambled control peptide with the same amino acid composition as CSP, reference compound]",persistently high lung volumes,–
